We go through 20 molecules from patent US6949655B2, “Acyclic piperidine derivatives” (priority 2001, dated 2005).

The assay has as its system rat embryo ventral mesencephalic cells. As to the kind of experiment: Neuroprotection assay (NMDA-induced neuroexcitotoxic injury, 3H-dopamine uptake). The following applies: VM cell culture, NMDA 100-400 μM for 20 hours, high affinity 3H-dopamine uptake. Type of assay: cell-based, Sprague-Dawley rat. An excerpt:
The neuroprotective activity of the compounds of this invention may be assayed using rat embryo ventral mesencephalic cells in culture which are subsequently exposed to the glutamate receptor agonist NMDA. This assay is described in detail in the example section.
The ventral mesencephalic region was dissected out of embryonic day 15 Sprague-Dawley rat embryos (Harlan), dissociated into single cell suspension by a combination of trypsinization and trituration (Costantini et al., Neurobiol Dis., pp. 97-106 (1998). Dissociated VM cells were plated into poly-L-ornithine-coated 96-well plates at a density of 85,000 cells/well in 100 uL of DMEM supplemented with 18% heat-inactivated horse serum, 0.24% glucose, 2 mM glutamine and 50 u/ml pernicillin/streptomycin and incubated in a 5% CO2 incubator. After one day in culture (DIV1), the medium was replaced with 100 μL of a defined medium (DMEM supplemented with 1×N2 cocktail (Gibco-BRL), 0.12% glucose, 2 mM glutamine, and 50 units/ml penicillin/streptomycin) containing DMSO or various concentrations of the compounds of this invention. On DIV5, neuroexcitotoxic injury was induced by the addition of various concentrations of the glutamate receptor agonist NMDA (100-400 μM). Cultures were incubated with the neurotoxin for 20 hours and the effects of neurophilin compounds were assessed using high affinity ^3H-dopamine uptake according to a procedure published by Park and Mytilineou [Brain Res., 599, pp. 83-97 (1992)].
The EC50 is the concentration needed to bring the measured effect to its halfway point. For the molecule `C[C@@H](C(=O)N1CCN(c2ccc(F)cc2)CC1)N(C)Cc1ccccc1` [Compound 9, 2-(Benzyl-methylamino)-1-[4-(4-fluorophenyl)-piperazin-1-yl]-propan-1-one], the concentration giving a half-maximal response (EC50) was less than 100 nM.
The value for `O=C(CN(Cc1ccccc1)Cc1ccccc1)N1CCC(Cc2ccccc2)CC1` [Compound 15] was more than 500 nM.
The value for `C[C@@H](c1ccccc1)N(C)CC(=O)N1CCN(C(c2ccc(F)cc2)c2ccc(F)cc2)CC1` [Compound 18] was more than 500 nM; that for `CN(C)C1(C(=O)N2CCC(Cc3ccccc3)CC2)CCc2ccccc21` (centres unmarked) [Compound 10] was 100 to 500 nM; that for `CCN(CC(=O)N1CCN(c2ccccc2)CC1)Cc1ccccc1` [Compound 2] was more than 500 nM.
The value for `C[C@H](c1ccccc1)N(C)CC(=O)N1CCN(C(c2ccc(F)cc2)c2ccc(F)cc2)CC1` [Compound 17] was more than 500 nM.
As for `C[C@H](c1ccccc1)N(C)CC(=O)N1CCN(c2ccccc2)CC1` [Compound 3], the concentration giving a half-maximal response (EC50) is more than 500 nM.
The value for `CCN(CC(=O)N1CCC(Cc2ccccc2)CC1)Cc1ccccc1` [Compound 6] was 100 to 500 nM.
For `C[C@@H](C(=O)N1CCC(Cc2ccc(F)cc2)CC1)N(C)Cc1ccccc1` [Compound 11, 2-(Benzyl-methylamino)-1-[4-(4-fluorobenzyl)-piperidin-1-yl]-propan-1-one], the EC50 was less than 100 nM.
In the case of `C[C@@H](c1ccccc1)N(C)CC(=O)N1CCC(Cc2ccccc2)CC1` [Compound 8], the 50% effective concentration (EC50) is 100 to 500 nM.
The value for `CN(C)CC(=O)N1CCN(C(c2ccc(F)cc2)c2ccc(F)cc2)CC1` [Compound 12] was more than 500 nM; that for `CCN(CC(=O)N1CCN(C(c2ccc(F)cc2)c2ccc(F)cc2)CC1)Cc1ccccc1` [Compound 16] was more than 500 nM; that for `C[C@H](c1ccccc1)N(C)CC(=O)N1CCC(Cc2ccccc2)CC1` [Compound 7] was 100 to 500 nM.
The value for `CCC(C)[C@@H](C(=O)N1CCC(Cc2ccccc2)CC1)N(C)Cc1ccccc1` (some centres unmarked) [Compound 13] was more than 500 nM; that for `C[C@@H](c1ccccc1)N(C)CC(=O)N1CCN(c2ccccc2)CC1` [Compound 4] was more than 500 nM; that for `C[C@@H](C(=O)N1CCN(C(c2ccc(F)cc2)c2ccc(F)cc2)CC1)N(C)Cc1ccccc1` [Compound 19, 2-(Benzyl-methylamino)-1-{4-[bis-4-(4-fluorophenyl)-methyl]-piperazin-1-yl]-propan-1-one] was 100 to 500 nM.
The value for `O=C(CN(Cc1ccccc1)Cc1ccccc1)N1CCN(c2ccccc2)CC1` [Compound 14] was more than 500 nM.
For `O=C(CN(Cc1ccccc1)Cc1ccccc1)N1CCN(C(c2ccc(F)cc2)c2ccc(F)cc2)CC1` [Compound 20], the EC50 is more than 500 nM.
The value for `C[C@@H](C(=O)N1CCC(Cc2ccccc2)CC1)N(C)Cc1ccccc1` [Compound 5] was less than 100 nM; that for `CN(C)CC(=O)N1CCC(Cc2ccccc2)CC1` [Compound 1] was more than 500 nM.
